For orientation: IC50 means the concentration that inhibits the measured activity by half. Read a high IC50 as a need for much substance. Usually inhibition stands for how much of the control response was suppressed.

6 compounds from ChEMBL document CHEMBL1151272, “Anti-inflammatory acylphloroglucinol derivatives from Hops (Humulus lupulus)” (J Nat Prod, 2005) can be followed below.

The target in experiment [1] is T1, Prostaglandin G/H synthase 1 (Ovis aries, UniProt P05979).
T1 sequence (P05979 whole entry): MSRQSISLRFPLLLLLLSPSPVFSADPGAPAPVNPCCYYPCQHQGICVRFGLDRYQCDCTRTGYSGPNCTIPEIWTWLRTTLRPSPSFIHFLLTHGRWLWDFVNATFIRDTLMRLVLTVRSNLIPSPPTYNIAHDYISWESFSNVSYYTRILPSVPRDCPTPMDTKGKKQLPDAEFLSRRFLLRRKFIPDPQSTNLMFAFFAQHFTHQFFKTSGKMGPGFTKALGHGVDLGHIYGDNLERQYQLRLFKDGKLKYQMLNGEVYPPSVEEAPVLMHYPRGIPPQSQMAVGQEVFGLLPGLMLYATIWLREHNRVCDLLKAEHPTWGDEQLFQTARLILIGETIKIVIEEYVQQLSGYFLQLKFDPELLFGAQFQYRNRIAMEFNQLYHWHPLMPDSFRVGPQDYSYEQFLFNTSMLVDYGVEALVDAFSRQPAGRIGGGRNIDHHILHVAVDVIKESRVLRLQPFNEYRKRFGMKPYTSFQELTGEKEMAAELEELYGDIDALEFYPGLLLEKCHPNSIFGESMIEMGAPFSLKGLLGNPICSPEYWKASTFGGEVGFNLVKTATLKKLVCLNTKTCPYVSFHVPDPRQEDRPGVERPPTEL
The experiment is described as follows: Inhibition of sheep COX1 measured by oxygen consumption.

Experiment [2] deals with T2, Prostaglandin G/H synthase 1 (Ovis aries) (UniProt P05979).
T2 sequence (whole entry): T1 sequence (P05979 whole entry)
The experiment is described as follows: Inhibition of sheep COX1 measured by oxygen consumption at 100 uM.

For the compound `CC(C)C(=O)c1c(O)cc(O[C@@H]2O[C@H](CO)[C@@H](O)[C@H](O)[C@H]2O)cc1O`, in experiment [1], the IC50 is 58.7 µM. Regarding `Oc1cc(O)cc(O)c1` [PHLOROGLUCINOL], in experiment [1], the AC50 entry is reported as “Active”. On to `CC(C)C(=O)c1c(O)cc(O)cc1O[C@@H]1O[C@H](CO)[C@@H](O)[C@H](O)[C@H]1O`, for which, in experiment [1], the midpoint of inhibition, the IC50, lay at 23.7 µM. In experiment [1], `CC(C)C(=O)c1c(O)cc(O)cc1O` [PHLOROISOBUTYROPHENONE] came in with an IC50 of 3.8 µM. `CCC(C)C(=O)c1c(O)cc(O)cc1O[C@@H]1O[C@H](CO)[C@@H](O)[C@H](O)[C@H]1O` (stereo partly specified) displayed an IC50 in experiment [1] of 131 µM. Compared with the last compound, the IC50 is about 34-fold higher.

As for `CC(C)CC(=O)c1c(O)cc(O)cc1O[C@@H]1O[C@H](CO)[C@@H](O)[C@H](O)[C@H]1O`, the inhibition in experiment [2] was found to be 12%.
